# Target: Substance-P receptor (Homo sapiens, UniProt P25103)
# Test: Antagonistic activity against human Tachykinin receptor 1
# Format: functional
# Sequence of Substance-P receptor (P25103 whole entry): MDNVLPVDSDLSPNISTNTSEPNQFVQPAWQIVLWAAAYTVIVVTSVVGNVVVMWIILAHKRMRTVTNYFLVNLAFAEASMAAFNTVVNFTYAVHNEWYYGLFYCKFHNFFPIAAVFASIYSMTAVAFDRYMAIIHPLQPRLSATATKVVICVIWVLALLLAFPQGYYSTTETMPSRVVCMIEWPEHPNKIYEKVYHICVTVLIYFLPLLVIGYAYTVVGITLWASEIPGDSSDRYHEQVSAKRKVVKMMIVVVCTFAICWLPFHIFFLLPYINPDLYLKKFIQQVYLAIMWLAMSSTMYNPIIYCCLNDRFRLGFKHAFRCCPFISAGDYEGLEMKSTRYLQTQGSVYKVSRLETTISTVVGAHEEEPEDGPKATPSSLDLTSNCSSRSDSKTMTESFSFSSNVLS
row,IC50 [nM],Structure (SMILES)
1,4.6,Clc1cc(Cl)cc(COCC2(c3ccccc3)CCNCC2)c1
2,9,Cc1cc(C)cc(COCC2(c3ccccc3)CCNCC2)c1
3,57,FC(F)(F)c1cccc(COCC2(c3ccccc3)CCNCC2)c1

# Reference: ChEMBL document CHEMBL1128293, “4,4-Disubstituted piperidines: a new class of NK1 antagonist” (J Med Chem, 1995)
